In patent US10799522B2, “Compositions and methods relating to galectin detection” (Wayne State University, priority 2015, dated 2020):
“Also recorded” adds a separate entry of the source.

Legend:
[1] = system: orthotopic human breast carcinoma xenograft (MCF10DCIS); assay: dynamic PET/CT imaging, pharmacokinetics and biodistribution in tumor-bearing mice; type: in vivo, immunedeficient nu/nu mice
Protocol: A single (unilateral) orthotopic breast carcinoma xenograft was established in immunedeficient nu/nu mice by injection of human breast ductal carcinoma in situ cells (MCF10DCIS) in Matrigel into one of the upper mammary fat pad.
Tumor-bearing mice (˜20-25 g) were anesthetized using inhalation of 2% isoflurane in oxygen, and their body temperature maintained at 38° C. by a heating pad with a feedback temperature control. […] Dynamic PET images were acquired in list-mode and reconstructed using OSEM algorithm at multiple time frames post radiotracer administration (0-2, 2-4, 4-6, 6-8, 8-10, 10-20, 20-30, 30-40, 40-50, 50-60 min). Thereafter, while still fixed to the positioning bed, the mice were moved with the bed into the gantry of INVEON SPECT/CT (Siemens), and CT images were acquired over the whole body area for attenuation correction of PET images and for production of PET/CT images. PET/CT fusion images were generated and analyzed in a similar manner as when studying rats.

[2] = dynamic PET/CT imaging, pharmacokinetics and biodistribution in a normal rat; type: in vivo, Sprague-Dawley rats
Protocol: Sprague-Dawley rats (males, ˜250 g) were anesthetized using inhalation of 2% isoflurane in oxygen, and their body temperature maintained at 37° C. by a heating pad with a feedback temperature control. […] Dynamic PET images were acquired in the list-mode and reconstructed using OSEM algorithm at multiple time frames post radiotracer administration (0-2, 2-4, 4-6, 6-8, 8-10, 10-20, 20-30, 30-40, 40-50, 50-60 min), followed by a whole body image that has been acquired using 3 consecutive bed positions, 5 min/bed position. Thereafter, while still fixed to the positioning bed, the rats were moved with the bed into the gantry of the INVEON SPECT/CT (Siemens) and CT images were acquired over the whole body area for attenuation correction of PET images and for production of PET/CT images. PET/CT fusion images were generated and analyzed using the AMIDE software version 1.0.4. […] The data was analyzed using GraphPad Prism version 6 (GraphPad Prism, Inc.) and pharmacokinetic parameters of clearance were calculated by fitting the resultant time-activity curves with exponential or bi-exponential functions.

[3] = tumor-bearing mice, i.v., bi-exponential clearance from the blood
[4] = tumor-bearing mice, mono-exponential kinetics
[5] = rats, i.v., bi-exponential clearance from the blood
[6] = rats, i.v., mono-exponential kinetics

OCC1OC(SC2OC(CO)C(O)C(n3cc(-c4cccc([18F])c4)nn3)C2O)C(O)C(n2cc(-c3cccc(F)c3)nn2)C1O [[^18F]FPTDG, 3-(3-[^18F]fluorophenyltriazolyl)-3-deoxy-3′-(3-fluorophenyltriazolyl)-3′-deoxy-1-thio-β-D-digalactopyranoside]
retention in MCF10DCIS xenografts ([1]; 20 to 60 min post i.v. injection): significant retention
accumulation of radioactivity in normal mammary fat pads ([1]; mice, PET/CT): no accumulation of radioactivity was detectable
accumulation or retention of radioactivity in the lungs, muscles, and other organs and tissues ([1]; mice, i.v.): extremely low
crossing of the blood-brain barrier (radioactivity in the brain) ([1]; mice, i.v.): does not cross the blood-brain barrier (BBB) in mice either
magnitude of catabolism ([1]; mice, bone accumulation at 60 min post injection): negligible
increased binding and accumulation in MCF10DCIS, as compared to normal breast tissue and muscle (Logan graphical analysis) ([1]; mice, muscle as reference tissue): 2-3 fold
renal clearance ([1]; mice, radioactivity in the bladder): more active in mice, as compared with rats
route of excretion ([1]; tumor-bearing mice, i.v.): predominantly via the hepatobiliary route of excretion
blood fast clearance half-time [1, 3]: ~0.5 min
blood slow clearance half-time [1, 3]: ~10.5 min
kidney clearance half-time [1, 4]: 37 min
liver clearance half-time [1, 4]: ~120 min
defluorination ([2]; [^18F]-fluoride radioactivity accumulation in the bone): Minimal, but detectable
radioactivity levels in all major organs and tissues, including the liver and gall bladder ([2]; after 75 min post intravenous administration): very low
primary radiation dose-limiting organs ([2]; based on dynamic PET/CT imaging results): liver and gall bladder; also recorded: liver and gallbladder
pharmacologic toxicity ([2]; radiotracer doses): No pharmacologic toxicity can be anticipated or actually observed; also recorded: No acute pharmacologic toxicity at radiotracer doses has been observed
accumulation or retention of radioactivity in the lungs, muscles, and other organs and tissues ([2]; rats, i.v.): extremely low; also recorded: No substantial uptake or retention
crossing of the blood-brain barrier (radioactivity in the brain) ([2]; rats, i.v.): does not cross the blood-brain barrier (BBB)
route of excretion ([2]; rats, i.v.): predominantly via the hepatobiliary route of excretion; also recorded: primarily excreted via the hepatobiliary route
blood fast clearance half-time [2, 5]: 0.5 min
blood slow clearance half-time [2, 5]: 7.36 min
kidney clearance half-time [2, 6]: 68 min
liver clearance half-time [2, 6]: 53 min
renal clearance ([2]; rats, i.v., radioactivity in the bladder): insignificant
magnitude of catabolism ([2]; rats, bone accumulation at 60-75 min post injection): negligible
